According to patent US7943602B2 (Pantarhei Bioscience B.V., priority 2002, dated 2011):

How the values were obtained:
[1] = system: immature male Wistar rats; assay: In vivo androgenicity, seminal vesicle wet weight after oral dosing for 5 days; design: species or system rat; conditions: for Relative potency: DHT as reference (100%); for Increase seminal vesicle wet weight: once daily for 5 days, relative to vehicle treated rats
Protocol: Groups of 5 immature male Wistar rats, weighing 50±2 grams, received either vehicle treatment or were administered 30 or 10 mg/kg/day test substance by oral gavage in a dosing volume of 10 ml per kg for 5 consecutive days. During the experiment, animals were housed in cages of 45×23×15 cm and maintained in a controlled temperature of 22-24° C. and humidity (60-80%) environment with 12 hours light/dark cycles. Food (lab diet, rodent diet, PMI nutrition international) and water intake was ad libitum.
The animals were sacrificed 24 hours after receiving the final dose and the wet weight of the seminal vesicle of each animal was recorded and average wet weight per group was calculated. Increase in average seminal vesicle wet weight relative to the average seminal vesicle wet weight of vehicle treated rats was considered indicative for in vivo androgenicity.

[2] = molecular target: T1, human sex Hormone Binding Globulin (SHBG) (Homo sapiens, UniProt P04278); assay: Competitive steroid-binding assay, displacement of [3H]DHT from human SHBG; conditions: [3H]DHT as labeled ligand, compared to DHT, T or DHEA (FIG. 1)
T1 sequence (P04278 30-402): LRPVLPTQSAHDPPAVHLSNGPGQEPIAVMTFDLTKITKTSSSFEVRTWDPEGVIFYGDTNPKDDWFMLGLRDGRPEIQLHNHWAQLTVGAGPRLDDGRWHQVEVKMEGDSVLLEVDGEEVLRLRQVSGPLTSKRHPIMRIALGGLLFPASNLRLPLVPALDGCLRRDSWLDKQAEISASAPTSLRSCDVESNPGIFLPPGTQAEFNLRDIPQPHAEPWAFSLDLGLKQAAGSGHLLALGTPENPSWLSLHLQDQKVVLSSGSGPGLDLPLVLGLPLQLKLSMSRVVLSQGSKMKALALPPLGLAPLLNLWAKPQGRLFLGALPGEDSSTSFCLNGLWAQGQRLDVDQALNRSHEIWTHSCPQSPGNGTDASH
Protocol: Human SHBG was treated for 30 min at room temperature with a dextran-coated charcoal (DCC) suspension in phosphate buffered saline (PBS) to remove any steroid ligand. After centrifugation (2,000×g for 10 min) to sediment the DCC, the supernatant containing the human SHBG was diluted in PBS to a concentration of 1 nM based on its steroid binding capacity.
Duplicate aliquots (100 μl) of this human SHBG solution were then incubated with an equal volume of [^3H]DHT at 10 nM, together with 100 μl of PBS alone or the same amount of PBS containing increasing concentrations of unlabeled steroid ligands as competitors in polystyrene test tubes. After incubation for 1 h at room temperature the reaction mixtures were placed in an ice bath for a further 15 min. […] The unbound ligands adsorbed to DCC were then removed by centrifugation (2,000×g for 15 min at 4° C.), and the amounts of [^3H]labeled DHT bound to SHBG were counted in 2 ml ACS scintillation cocktail using in liquid scintillation spectrophotometer. The average amounts of [^3H] labeled DHT bound to SHBG at each concentration of competitor (B) were expressed as a percentage of the average amounts of [^3H]labeled DHT bound to SHBG in the absence of competitor (T), and were plotted against the concentration of competitor in each assay tube.

Recombinant rat AR = molecular target: T2, Recombinant rat AR (Rattus norvegicus, UniProt P15207); assay: Competitive steroid binding assay to the androgen receptor with [3H]mibolerone; conditions: for AR-binding Relative affinity: Ki value of DHT set at 100%; for Affinity to AR as compared to DHT and testosterone: orders of magnitude
T2 construct: made in house; host or cells: E. coli
T2 sequence (P15207 1-902): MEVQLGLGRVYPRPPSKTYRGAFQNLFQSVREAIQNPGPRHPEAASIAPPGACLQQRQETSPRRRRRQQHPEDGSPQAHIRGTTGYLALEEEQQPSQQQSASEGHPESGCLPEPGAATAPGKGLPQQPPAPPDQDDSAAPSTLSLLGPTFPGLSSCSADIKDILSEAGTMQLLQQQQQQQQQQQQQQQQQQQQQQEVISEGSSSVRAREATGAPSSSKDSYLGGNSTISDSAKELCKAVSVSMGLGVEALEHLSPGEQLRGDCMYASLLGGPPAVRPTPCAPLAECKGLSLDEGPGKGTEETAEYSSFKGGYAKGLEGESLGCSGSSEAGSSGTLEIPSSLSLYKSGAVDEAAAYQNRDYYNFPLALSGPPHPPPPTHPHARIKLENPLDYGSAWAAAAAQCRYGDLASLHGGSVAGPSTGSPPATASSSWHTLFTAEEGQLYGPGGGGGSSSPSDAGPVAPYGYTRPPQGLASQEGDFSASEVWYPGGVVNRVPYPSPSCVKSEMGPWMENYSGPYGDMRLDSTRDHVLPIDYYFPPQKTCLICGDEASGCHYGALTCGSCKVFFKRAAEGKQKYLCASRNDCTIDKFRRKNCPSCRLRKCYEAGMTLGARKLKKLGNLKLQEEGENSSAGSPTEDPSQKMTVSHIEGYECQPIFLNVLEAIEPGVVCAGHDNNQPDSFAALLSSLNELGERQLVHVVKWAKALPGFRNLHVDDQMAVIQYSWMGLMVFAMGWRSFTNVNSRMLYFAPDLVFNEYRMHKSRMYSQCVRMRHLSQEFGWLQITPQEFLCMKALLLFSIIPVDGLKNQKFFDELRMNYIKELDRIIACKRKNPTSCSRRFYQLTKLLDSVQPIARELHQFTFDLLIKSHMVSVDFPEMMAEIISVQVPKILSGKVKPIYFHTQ
Protocol: Recombinant rat AR was expressed and purified from E. Coli. […] After incubation for 4 h at 4° C., the unbound ligands were removed and the amounts of [^3H]mibolerone bound to the AR was measured. The average amounts of [^3H]mibolerone bound to AR at each concentration of competitor were used to make inhibition curves. IC50 values were subsequently determined by a non-linear, least squares regression analysis.

| SMILES | Relative potency ([1]; oral dose 10 mg/kg/day) | Increase seminal vesicle wet weight ([1]; oral dose 10 mg/kg/day) | Relative potency ([1]; oral dose 30 mg/kg/day) | Increase seminal vesicle wet weight ([1]; oral dose 30 mg/kg/day) | Binding to human SHBG [2] | Ki (Recombinant rat AR) | AR-binding Relative affinity (Recombinant rat AR) | Affinity to AR as compared to DHT and testosterone (Recombinant rat AR) |
| --- | --- | --- | --- | --- | --- | --- | --- | --- |
| C[C@]12CC[C@H]3[C@@H](CCC4=CC(=O)CC[C@@]43C)[C@@H]1[C@@H](O)C[C@@H]2O [15α-hydroxytestosterone, 15α,17β-dihydroxy-4-androsten-3-one] | 560% | 28% | 148% | 40% | do not bind human SHBG | 1820 nM | 0.05% | 2 to 3 orders of magnitude less affinity |
| C[C@]12CC[C@H]3[C@@H](CCC4=CC(=O)CC[C@@]43C)[C@@H]1CC[C@@H]2O [Testosterone, 17β-hydroxy-4-androsten-3-one, reference compound] | – | 41% | – | 47% | – | – | – | – |
| C[C@]12CCC(=O)C[C@@H]1CC[C@@H]1[C@@H]2CC[C@]2(C)[C@@H](O)CC[C@@H]12 [5α-dihydroxytestosterone, DHT, reference compound] | – | 5% | – | 27% | – | – | – | – |
| C[C@]12CC[C@H]3[C@@H](CCC4=CC(=O)CC[C@@]43C)[C@@H]1C[C@H](O)[C@@H]2O [16β-hydroxytestosterone, 16β,17β-dihydroxy-4-androsten-3-one] | – | – | – | – | – | 814 nM | 0.12% | 2 to 3 orders of magnitude less affinity |
| C[C@]12CC[C@H]3[C@@H](CCC4=CC(=O)CC[C@@]43C)[C@@H]1[C@H](O)C[C@@H]2O [15β-hydroxytestosterone, 15β,17β-dihydroxy-4-androsten-3-one] | 400% | 20% | 130% | 35% | do not bind human SHBG | 557 nM | 0.18% | 2 to 3 orders of magnitude less affinity |
